The molecules below were run against mouse TRPM3α2 (mTRPM3) ion channel (Mus musculus (Mouse), UniProt J9SQF3) (assay: TRPM3 ion channel driven Ca2+ uptake, Fluo-4 AM assay, mTRPM3alpha2 overexpressing flip-in HEK293 cells stimulated with pregnenolone sulfate). Conditions: PS 50 μM, cpds 200-299.
Format: cell-based
Summary of the method: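 Flip-in HEK293 cells loaded with Fluo-4 AM were added to plates holding compound plus 50 μM pregnenolone sulfate in Ca2+-containing Krebs buffer. Fluorescence (ex 485/em 535 nm) read directly after cell addition; % inhibition relative to PS-stimulated vehicle and positive-control inhibitor.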

mouse TRPM3α2 (mTRPM3) ion channel, sequence (J9SQF3 other isoform, or with tags, fused parts or gaps): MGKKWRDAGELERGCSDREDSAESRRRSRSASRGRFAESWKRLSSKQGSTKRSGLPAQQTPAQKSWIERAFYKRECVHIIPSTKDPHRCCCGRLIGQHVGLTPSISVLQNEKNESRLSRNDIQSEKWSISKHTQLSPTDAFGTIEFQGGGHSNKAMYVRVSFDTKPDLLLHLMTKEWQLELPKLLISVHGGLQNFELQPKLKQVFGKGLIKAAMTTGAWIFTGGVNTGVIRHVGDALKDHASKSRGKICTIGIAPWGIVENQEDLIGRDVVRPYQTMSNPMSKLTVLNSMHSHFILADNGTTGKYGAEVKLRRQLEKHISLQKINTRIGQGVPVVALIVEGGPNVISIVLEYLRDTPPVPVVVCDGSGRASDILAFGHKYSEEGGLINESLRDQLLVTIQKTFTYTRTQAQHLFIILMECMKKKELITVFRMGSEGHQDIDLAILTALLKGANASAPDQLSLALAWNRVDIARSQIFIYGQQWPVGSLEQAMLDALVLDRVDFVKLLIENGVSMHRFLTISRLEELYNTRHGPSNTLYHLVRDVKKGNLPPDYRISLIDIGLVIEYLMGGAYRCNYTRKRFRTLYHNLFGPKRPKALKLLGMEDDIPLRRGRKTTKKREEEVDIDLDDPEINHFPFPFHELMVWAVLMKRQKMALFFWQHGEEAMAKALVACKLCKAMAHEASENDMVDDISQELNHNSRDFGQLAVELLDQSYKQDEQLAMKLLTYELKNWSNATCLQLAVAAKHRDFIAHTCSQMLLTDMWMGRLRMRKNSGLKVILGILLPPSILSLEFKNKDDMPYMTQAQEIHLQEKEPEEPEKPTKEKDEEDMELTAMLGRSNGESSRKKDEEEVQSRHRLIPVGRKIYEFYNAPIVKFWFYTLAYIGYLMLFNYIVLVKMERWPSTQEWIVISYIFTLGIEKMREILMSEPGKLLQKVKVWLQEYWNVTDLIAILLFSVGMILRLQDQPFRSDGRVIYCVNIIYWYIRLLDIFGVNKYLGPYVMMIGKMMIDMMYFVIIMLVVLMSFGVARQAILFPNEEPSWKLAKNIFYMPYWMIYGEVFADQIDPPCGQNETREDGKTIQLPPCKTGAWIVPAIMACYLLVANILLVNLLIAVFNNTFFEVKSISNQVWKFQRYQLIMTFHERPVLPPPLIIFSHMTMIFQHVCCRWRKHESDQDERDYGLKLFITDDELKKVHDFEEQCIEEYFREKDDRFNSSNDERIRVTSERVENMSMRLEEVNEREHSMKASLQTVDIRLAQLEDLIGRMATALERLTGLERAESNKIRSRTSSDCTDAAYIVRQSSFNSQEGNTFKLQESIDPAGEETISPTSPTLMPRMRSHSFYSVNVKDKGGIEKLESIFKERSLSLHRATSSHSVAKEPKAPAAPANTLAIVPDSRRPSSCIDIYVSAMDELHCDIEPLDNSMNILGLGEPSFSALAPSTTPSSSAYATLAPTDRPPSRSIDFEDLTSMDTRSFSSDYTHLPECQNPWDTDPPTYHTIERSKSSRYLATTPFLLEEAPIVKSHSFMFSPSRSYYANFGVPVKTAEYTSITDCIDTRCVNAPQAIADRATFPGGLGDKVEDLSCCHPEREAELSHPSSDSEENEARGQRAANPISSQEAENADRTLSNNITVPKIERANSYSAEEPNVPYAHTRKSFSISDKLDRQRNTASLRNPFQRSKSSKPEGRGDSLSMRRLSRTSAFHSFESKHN

Row | IC50 [µM] | SMILES
1 | < 1 | Cc1nc(COc2ccc3oc(C)c(C(=O)N[C@@H](CO)C(N)=O)c3c2)c(C)s1 [compound 299, (S)-N-(1-amino-3-hydroxy-1-oxopropan-2-yl)-5-((2,5-dimethylthiazol-4-yl)methoxy)-2-methylbenzofuran-3-carboxamide]

Same assay, conditions: PS 50 μM, cpds 300-399

Row | IC50 [µM] | SMILES
2 | < 1 | Cc1oc2ccc(OCc3cccnc3N)cc2c1C(=O)N[C@@H](CO)C(N)=O [compound 300, (S)-N-(1-amino-3-hydroxy-1-oxopropan-2-yl)-5-((2-aminopyridin-3-yl)methoxy)-2-methylbenzofuran-3-carboxamide]
3 | < 1 | Cc1oc2ccc(OCc3ncccc3C(F)F)cc2c1C(=O)N[C@@H](CO)C(N)=O [compound 301, (S)-N-(1-amino-3-hydroxy-1-oxopropan-2-yl)-5-((3-(difluoromethyl)pyridin-2-yl)methoxy)-2-methylbenzofuran-3-carboxamide]
4 | < 1 | Cc1oc2ccc(OCc3c(F)cnn3C)cc2c1C(=O)N[C@@H](CO)C(N)=O [compound 302, (S)-N-(1-amino-3-hydroxy-1-oxopropan-2-yl)-5-((4-fluoro-1-methyl-1H-pyrazol-5-yl)methoxy) -2-methylbenzofuran-3-carboxamide]
5 | < 1 | COC[C@H](NC(=O)c1c(C)oc2ccc(OCc3cnc(C)s3)cc12)C(N)=O [compound 303, (S)-N-(1-amino-3-methoxy-1-oxopropan-2-yl)-2-methyl-5-((2-methylthiazol-5-yl)methoxy)benzofuran-3-carboxamide]
6 | < 1 | Cc1ncsc1COc1ccc2oc(C)c(C(=O)N[C@H](C(N)=O)C(C)C)c2c1 [compound 304, (S)-N-(1-amino-3-methyl-1-oxobutan-2-yl)-2-methyl-5-((4-methylthiazol-5-yl)methoxy)benzofuran-3-carboxamide]
7 | < 1 | CNC(=O)[C@H](CO)NC(=O)c1c(C)oc2ccc(OCc3cnc(C)s3)cc12 [compound 305, (S)-N-(3-hydroxy-1-(methylamino)-1-oxopropan-2-yl)-2-methyl-5-((2-methylthiazol-5-yl)methoxy)benzofuran-3-carboxamide]
8 | < 1 | CNC(=O)[C@H](CO)NC(=O)c1c(C)oc2ccc(OCc3scnc3C)cc12 [compound 306, (S)-N-(3-hydroxy-1-(methylamino)-1-oxopropan-2-yl)-2-methyl-5-((4-methylthiazol-5-yl)methoxy)benzofuran-3-carboxamide]
9 | < 1 | O=C(NC1(CO)CCOCC1)c1c(C(F)F)oc2ccc(OCc3cccnc3O)cc12 [compound 311, 2-(difluoromethyl)-N-(4-(hydroxymethyl)tetrahydro-2H-pyran-4-yl)-5-((2-oxo-1,2-dihydropyridin-3-yl)methoxy)benzofuran-3-carboxamide]
10 | < 1 | Cc1ncsc1COc1ccc2oc(C3CC3)c(C(=O)NC3(CO)CCOCC3)c2c1 [compound 314, 2-cyclopropyl-N-(4-(hydroxymethyl)tetrahydro-2H-pyran-4-yl)-5-((4-methylthiazol-5-yl)methoxy)benzofuran-3-carboxamide]
11 | < 1 | CNC(=O)C1(NC(=O)c2c(C)oc3ccc(OCc4cnc(C)s4)cc23)CCC1 [compound 318, 2-methyl-N-(1-(methylcarbamoyl)cyclobutyl)-5-((2-methylthiazol-5-yl)methoxy)benzofuran-3-carboxamide]
12 | < 1 | CNC(=O)C1(NC(=O)c2c(C)oc3ccc(OCc4scnc4C)cc23)CCC1 [compound 319, 2-methyl-N-(1-(methylcarbamoyl)cyclobutyl)-5-((4-methylthiazol-5-yl)methoxy)benzofuran-3-carboxamide]
13 | < 1 | CNC(=O)C1(NC(=O)c2c(C)oc3ccc(OCc4ccccn4)cc23)CCC1 [compound 320, 2-methyl-N-(1-(methylcarbamoyl)cyclobutyl)-5-(pyridin-2-ylmethoxy)benzofuran-3-carboxamide]
14 | < 1 | CNC(=O)CNC(=O)c1c(C)oc2ccc(OCc3scnc3C)cc12 [compound 321, 2-methyl-N-(2-(methylamino)-2-oxoethyl)-5-((4-methylthiazol-5-yl)methoxy)benzofuran-3-carboxamide]
15 | < 1 | Cc1ncsc1COc1ccc2oc(C)c(C(=O)NCCNS(C)(=O)=O)c2c1 [compound 322, 2-methyl-N-(2-(methylsulfonamido)ethyl)-5-((4-methylthiazol-5-yl)methoxy)benzofuran-3-carboxamide]
16 | < 1 | Cc1ncsc1COc1ccc2oc(C)c(C(=O)NCCS(C)(=O)=O)c2c1 [compound 323, 2-methyl-N-(2-(methylsulfonyl)ethyl)-5-((4-methylthiazol-5-yl)methoxy)benzofuran-3-carboxamide]
17 | < 1 | CNC(=O)C1(NC(=O)c2c(C)oc3ccc(OCc4scnc4C)cc23)COC1 [compound 324, 2-methyl-N-(3-(methylcarbamoyl)oxetan-3-yl)-5-((4-methylthiazol-5-yl)methoxy)benzofuran-3-carboxamide]
18 | 1 to 20 | Cc1oc2ccc(OCc3cccnc3C(N)=O)cc2c1C(=O)NC1(CO)CCOCC1 [compound 325]

Row | IC50 [µM] | SMILES
19 | < 1 | Cc1ncsc1COc1ccc2oc(C)c(C(=O)NC3(CO)COC3)c2c1F [compound 328, 4-fluoro-N-(3-(hydroxymethyl)oxetan-3-yl)-2-methyl-5-((4-methylthiazol-5-yl)methoxy)benzofuran-3-carboxamide]
20 | < 1 | COc1ncccc1COc1ccc2oc(C)c(C(=O)NC3(CO)CCOCC3)c2c1F [compound 330, 4-fluoro-N-(4-(hydroxymethyl)tetrahydro-2H-pyran-4-yl)-5-((2-methoxypyridin-3-yl)methoxy)-2-methylbenzofuran-3-carboxamide]
21 | < 1 | Cc1oc2ccc(OCc3ccnn3CC(F)F)cc2c1C(=O)NC1(CO)CCOCC1 [compound 334, 5-((1-(2,2-difluoroethyl)-1H-pyrazol-5-yl)methoxy)-N-(4-(hydroxymethyl)tetrahydro-2H-pyran-4-yl)-2-methylbenzofuran-3-carboxamide]
22 | < 1 | Cc1oc2ccc(OCc3cccnc3N3CCC3)cc2c1C(=O)NC1(CO)CCOCC1 [compound 337, 5-((2-(azetidin-1-yl)pyridin-3-yl)methoxy)-N-(4-(hydroxymethyl)tetrahydro-2H-pyran-4-yl)-2-methylbenzofuran-3-carboxamide]
23 | < 1 | Cc1oc2ccc(OCc3cccnc3OC(F)F)cc2c1C(=O)NC1(CO)CCOCC1 [compound 339, 5-((2-(difluoromethoxy)pyridin-3-yl)methoxy)-N-(4-(hydroxymethyl)tetrahydro-2H-pyran-4-yl) -2-methylbenzofuran-3-carboxamide]
24 | < 1 | Cc1oc2ccc(OCc3cccnc3C(F)F)cc2c1C(=O)NC1(CO)COC1 [compound 341, 5-((2-(difluoromethyl)pyridin-3-yl)methoxy)-N-(3-(hydroxymethyl)oxetan-3-yl)-2-methylbenzofuran-3-carboxamide]
25 | < 1 | Cc1oc2ccc(OCc3cccnc3C(F)F)cc2c1C(=O)NC1(CO)CCOCC1 [compound 343, 5-((2-(difluoromethyl)pyridin-3-yl)methoxy)-N-(4-(hydroxymethyl)tetrahydro-2H-pyran-4-yl)-2-methylbenzofuran-3-carboxamide]
26 | < 1 | Cc1oc2ccc(OCc3cccnc3N(C)C)cc2c1C(=O)NC1(CO)CCOCC1 [compound 344, 5-((2-(dimethylamino)pyridin-3-yl)methoxy)-N-(4-(hydroxymethyl)tetrahydro-2H-pyran-4-yl)-2-methylbenzofuran-3-carboxamide]
27 | < 1 | Cc1nc(C)c(COc2ccc3oc(C)c(C(=O)NC4(CO)CCOCC4)c3c2)s1 [compound 345, 5-((2,4-dimethylthiazol-5-yl)methoxy)-N-(4-(hydroxymethyl)tetrahydro-2H-pyran-4-yl)-2-methylbenzofuran-3-carboxamide]
28 | < 1 | Cc1oc2ccc(OCc3cccnc3N)cc2c1C(=O)NC1(CO)CCOCC1 [compound 346, 5-((2-aminopyridin-3-yl)methoxy)-N-(4-(hydroxymethyl)tetrahydro-2H-pyran-4-yl)-2-methylbenzofuran-3-carboxamide]
29 | < 1 | Cc1oc2ccc(OCc3ncccc3F)cc2c1C(=O)NC1(CO)CCOCC1 [compound 352, 5-((3-fluoropyridin-2-yl)methoxy)-N-(4-(hydroxymethyl)tetrahydro-2H-pyran-4-yl)-2-methylbenzofuran-3-carboxamide]
30 | < 1 | Cc1oc2ccc(OCc3c(F)cnn3C)cc2c1C(=O)NC1(CO)CCOCC1 [compound 357, 5-((4-fluoro-1-methyl-1H-pyrazol-5-yl)methoxy)-N-(4-(hydroxymethyl)tetrahydro-2H-pyran-4-yl)-2-methylbenzofuran-3-carboxamide]
31 | > 20 | Cc1oc2ccc(OCc3ccc(OCCO)cn3)cc2c1C(=O)NC1(CO)CCOCC1 [compound 358, 5-((5-(2-hydroxyethoxy)pyridin-2-yl)methoxy)-N-(4-(hydroxymethyl)tetrahydro-2H-pyran-4-yl) -2-methylbenzofuran-3-carboxamide]
32 | < 1 | Cc1oc2ccc(OCc3ccc(F)cn3)cc2c1C(=O)NC1(CO)CCOCC1 [compound 359, 5-((5-fluoropyridin-2-yl)methoxy)-N-(4-(hydroxymethyl)tetrahydro-2H-pyran-4-yl)-2-methylbenzofuran-3-carboxamide]
33 | < 1 | Cc1ncsc1COc1cc2c(C(=O)NC3(CO)CC3)c(C)oc2cc1F [compound 361, 6-fluoro-N-(1-(hydroxymethyl)cyclopropyl)-2-methyl-5-((4-methylthiazol-5-yl)methoxy)benzofuran-3-carboxamide]
34 | < 1 | Cc1ncsc1COc1cc2c(C(=O)NC3(CO)COC3)c(C)oc2cc1F [compound 362, 6-fluoro-N-(3-(hydroxymethyl)oxetan-3-yl)-2-methyl-5-((4-methylthiazol-5-yl)methoxy)benzofuran-3-carboxamide]

Source: patent publication US12209081B2 (Katholieke Universiteit Leuven, priority 2020, dated 2025)
